Source: publication PMC7897990, “TriTOX: A novel Trichomonas vaginalis assay platform for high-throughput screening of compound libraries” (International Journal for Parasitology: Drugs and Drug …, 2021)
Where two headings read alike, the source gives them in different places.

Legend:
[1] = tested on: Trichomonas vaginalis G3 trophozoites; details: HTS, parasite screen at 1 µg/mL; for T.vaginalis_Absorbance_Rep1: replicate 1, raw absorbance; for T.vaginalis_Absorbance_Rep2: replicate 2, raw absorbance
[2] = tested on: nontumorigenic neonatal foreskin fibroblast (NFF) cell line
[3] = tested on: Trichomonas vaginalis G3 trophozoites; experiment: microbe, parasite or virus in culture; details: 48 h
[4] = tested on: T. vaginalis; experiment: Medium-throughput (MTS) confirmatory dose-response growth assay, T. vaginalis; assay type: cell-based, Trichomonas vaginalis; details: 48 h; for activity against T. vaginalis in MTS, in words: 10-point dilution series, 96-well; for IC50: 96-well, 10,000 cells/mL in 50 μL, mean ± SEM, >10 = no appreciable activity at highest dose
Experimental: (§1) For microtiter plate assays, trichomonads were grown in anaerobic conditions within GasPak EZ anaerobe pouches with fresh anaerobic sachets. Working reagent of the chromogen was phenol red (Sigma) in a 1% w/v working solution in phosphate buffered saline (PBS), which was filter sterilised. Chromogen absorbance was monitored at 570 nm on an absorbance microplate reader after plates were allowed to equilibrate in atmospheric conditions at room temperature for at least 5 min.
(§2) After absorbances were measured, data were processed as followed unless indicated otherwise in the text. […] Prism 8 (GraphPad) was used to plot dose-response curves and calculate IC50 values, using a least squares regression, log[inhibitor] vs normalised response (variable slope, four parameters) model. Where replicate plates were used, data for dose-response curves were plotted as the mean±SD of these replicates.
(§3) A selection of 17 compounds assayed in the high-throughput screen (HTS) for T. vaginalis which were available through BioAustralis were obtained for validation of inhibitory in/activity in our optimised medium-throughput format. For this, a 10-point serial dilution was used for drug-susceptibility testing to calculate IC50 values of ‘hit’ compounds. Mtz was used as a positive control. Each screen was performed with 3 technical replicates and a minimum of 2 biological replicates in both T. vaginalis and T. foetus using assay conditions of seeds of 10,000 cells/mL in 50 μL, with absorbance measured at 48 h. Dose response curves and IC50 were calculated for each compound as described above in Section 2.3.

[5] = tested on: T. foetus; experiment: Medium-throughput (MTS) confirmatory dose-response growth assay, T. foetus; assay type: cell-based, Tritrichomonas foetus; details: 96-well, 10,000 cells/mL in 50 μL, 48 h, mean ± SEM, >10 = no appreciable activity at highest dose
Experimental: as §1, §2, §3

[6] = read-out: T.vaginalis_%inb_Rep1
[7] = read-out: T.vaginalis_%inb_Rep2
[8] = NFF fibroblast screen at 5 µg/mL, A = active, I = inactive

C=CC(C)(C)c1[nH]c2c(CC=C(C)C)cc(CC=C(C)C)cc2c1C[C@@H]1NC(=O)[C@H](C)NC1=O [Echinulin]
T.vaginalis_Absorbance_Rep1 [1]: 1.001
T.vaginalis_Absorbance_Rep2 [1]: 0.85
NFF_Activity ([2]; NFF_NS1 screen at 5 µg/mL): I (otherwise these were reported as inactive (I))
inhibition of growth at 1 µg/mL [3, 6]: 15.7%
inhibition of growth at 1 µg/mL [3, 7]: 16.6%

CCC(=C/[C@H](C)C/C=C/C(C)=C/[C@@H](C)C(=O)[C@@H](C)[C@H](O)[C@@H](C)C/C(C)=C/C(=O)O)/C=C/[C@@H]1OC(=O)C=C[C@@H]1C [Leptomycin B, leptomycin B]
activity against T. vaginalis in MTS, in words [4]: no activity
IC50 ([4]; Trichomonas vaginalis): > 10 µM
IC50 ([5]; Tritrichomonas foetus): > 10 µM

C[C@@](O)(/C=C/[C@H]1CC=CC(=O)O1)[C@@H](C[C@@H](O)\C=C/C=C\C=C\CO)OP(=O)(O)O [Fostriecin]
T.vaginalis_Absorbance_Rep1 [1]: 0.964
T.vaginalis_Absorbance_Rep2 [1]: 0.811
NFF_Activity ([2]; NFF_NS1 screen at 5 µg/mL): I (otherwise these were reported as inactive (I))
inhibition of growth at 1 µg/mL [3, 6]: 13.7%
inhibition of growth at 1 µg/mL [3, 7]: 13.8%

Cc1cc(O)c(C=O)c2c1C(=O)Oc1c(COC(=O)/C=C/C(=O)O)c(O)c(C(=O)O)c(C)c1O2 [Fumarprotocetraric acid]
T.vaginalis_Absorbance_Rep1 [1]: 0.953
T.vaginalis_Absorbance_Rep2 [1]: 0.839
NFF_Activity ([2]; NFF_NS1 screen at 5 µg/mL): I (otherwise these were reported as inactive (I))
inhibition of growth at 1 µg/mL [3, 6]: 13.1%
inhibition of growth at 1 µg/mL [3, 7]: 15.8%

CC[C@@H]1C[C@H]2CC[C@H](O2)[C@H](C)C(=O)O[C@@H](C)C[C@@H]2CC[C@@H](O2)[C@@H](C)C(=O)O[C@H](CC)C[C@H]2CC[C@H](O2)[C@H](C)C(=O)O[C@@H](C)C[C@@H]2CC[C@@H](O2)[C@@H](C)C(=O)O1 [Dinactin]
T.vaginalis_Absorbance_Rep1 [1]: 0.868
T.vaginalis_Absorbance_Rep2 [1]: 0.733
NFF_Activity ([2]; NFF_NS1 screen at 5 µg/mL): I (otherwise these were reported as inactive (I))
inhibition of growth at 1 µg/mL [3, 6]: 8.56%
inhibition of growth at 1 µg/mL [3, 7]: 8.17%

CCC(C)CC1CCC(O)(C(C)(O)C(=O)NC2C(=O)N3NCCCC3C(=O)N(O)C(C)C(=O)NCC(=O)N3NCCCC3C(=O)N(O)C(C)C(=O)OC2C(C)C)OC1C (stereo not drawn) [L 156602]
activity against T. vaginalis in MTS, in words [4]: true positives
IC50 [4]: 0.059 ± 0.004 µM
IC50 [5]: 0.44 ± 0.18 µM

COc1cc(C)c(C(=O)Oc2cc(C)c(C(=O)O)c(O)c2)c(O)c1 [Evernic acid]
T.vaginalis_Absorbance_Rep1 [1]: 0.922
T.vaginalis_Absorbance_Rep2 [1]: 0.775
NFF_Activity ([2]; NFF_NS1 screen at 5 µg/mL): I (otherwise these were reported as inactive (I))
inhibition of growth at 1 µg/mL [3, 6]: 11.5%
inhibition of growth at 1 µg/mL [3, 7]: 11.2%

CC[C@H]1OC(=O)C[C@@H](O)[C@H](C)[C@@H](O[C@@H]2O[C@H](C)[C@@H](O)[C@H](N(C)C)[C@H]2O)[C@@H](CCN2C[C@H](C)C[C@H](C)C2)C[C@@H](C)C(=O)/C=C/C(C)=C/[C@@H]1CO[C@@H]1O[C@H](C)[C@@H](O)[C@@H](OC)[C@H]1OC [Tilmicosin]
NFF_Activity [2, 8]: I (otherwise these were reported as inactive (I))
inhibition of growth at 1 µg/mL [3, 6]: 2.41%
inhibition of growth at 1 µg/mL [3, 7]: 4.94%

C[C@H]1CCCC(=O)CCC/C=C/c2cc(O)cc(O)c2C(=O)O1 [Zearalenone]
NFF_Activity [2, 8]: I (otherwise these were reported as inactive (I))
inhibition of growth at 1 µg/mL [3, 6]: 7.39%
inhibition of growth at 1 µg/mL [3, 7]: 12%

CC[C@H](C)[C@H]1C(=O)O[C@H](C(C)C)C(=O)N(C)[C@@H](C(C)C)C(=O)O[C@H](C(C)C)C(=O)N(C)[C@@H](C(C)C)C(=O)O[C@H](C(C)C)C(=O)N1C [Enniatin B1]
T.vaginalis_Absorbance_Rep1 [1]: 0.967
T.vaginalis_Absorbance_Rep2 [1]: 0.828
NFF_Activity ([2]; NFF_NS1 screen at 5 µg/mL): I (otherwise these were reported as inactive (I))
inhibition of growth at 1 µg/mL [3, 6]: 13.9%
inhibition of growth at 1 µg/mL [3, 7]: 15%

COC(=O)C1=C2Nc3ccccc3[C@@]23CCN2C[C@]4(C[C@@H]5C[C@]67CCC[C@H]6CCN6CC[C@@]8(c9cccc(OC)c9N(C4)[C@@]58O)[C@@H]67)[C@@H]4OCC[C@]4(C1)[C@H]23 [Vobtusine]
NFF_Activity [2, 8]: I (otherwise these were reported as inactive (I))
inhibition of growth at 1 µg/mL [3, 6]: 9.54%
inhibition of growth at 1 µg/mL [3, 7]: 11.4%

C[C@H]1C(=O)O[C@@H]2CCN3CC=C(COC(=O)[C@](C)(O)[C@]1(C)O)[C@H]23 [Monocrotaline]
NFF_Activity ([2]; NFF fibroblasts, single concentration 5 µg/mL): I (otherwise these were reported as inactive (I))
inhibition of growth at 1 µg/mL [3, 6]: 8.98%
inhibition of growth at 1 µg/mL [3, 7]: 13.2%
